Results on 14 compounds are retold here after patent publication US5006549A, “Novel 7-aroyl-4-hydroxy-3-methyl-benzofurans as dual inhibitors of cyclooxygenase and 5-lipoxygenase” (priority 1989, dated 1991).

Where two headings read alike, the source gives them in different places.

Experiment [1] addresses cyclooxygenase. To be noted: bovine seminal vesicle microsomal enzyme preparation; read-out: IC50 against cyclooxygenase; cited from earlier work.
Experiment [2] relates to 5-lipoxygenase. Particulars: cited from earlier work.
For experiment [3], the system named is animal models of inflammation. To be noted: several animal models; cited from earlier work.
Experiment [4] addresses T1, Ram seminal vesicle microsomal cyclooxygenase (Ovis aries, UniProt P05979).
T1 construct: Ram seminal vesicular glands were trimed of excess fat; from tissue; host or cells: ram seminal vesicular glands, microsomes (105K×g pellet)
T1 sequence (P05979 25-600): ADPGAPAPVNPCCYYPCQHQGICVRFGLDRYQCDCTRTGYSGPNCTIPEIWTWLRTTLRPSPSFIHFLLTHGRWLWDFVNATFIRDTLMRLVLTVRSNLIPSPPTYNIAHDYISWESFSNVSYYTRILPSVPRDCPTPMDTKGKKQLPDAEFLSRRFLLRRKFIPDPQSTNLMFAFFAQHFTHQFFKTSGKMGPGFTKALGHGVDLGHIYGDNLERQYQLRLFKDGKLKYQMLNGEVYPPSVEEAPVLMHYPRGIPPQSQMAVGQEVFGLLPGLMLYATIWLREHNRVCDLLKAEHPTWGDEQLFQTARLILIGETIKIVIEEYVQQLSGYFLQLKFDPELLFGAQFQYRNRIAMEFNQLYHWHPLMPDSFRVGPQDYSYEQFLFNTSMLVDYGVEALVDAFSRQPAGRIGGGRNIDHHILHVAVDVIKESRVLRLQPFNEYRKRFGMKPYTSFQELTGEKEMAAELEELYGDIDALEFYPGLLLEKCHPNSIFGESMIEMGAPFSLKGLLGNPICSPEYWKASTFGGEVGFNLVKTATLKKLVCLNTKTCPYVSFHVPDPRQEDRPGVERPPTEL
In words: Ram Seminal Vesicle Microsomal Cyclooxygenase Assay (RSV CO). It counts as biochemical. To be noted: for IC50: RSV cyclooxygenase, mean values of at least two titrations; for activity in the CO assay: reference compounds. On the procedure:
Compounds of formula I were also evaluated in accordance with the ram seminal vesicle microsomal cyclooxygenase (RSV CO) assay.
Ram Seminal Vesicle Microsomal Cyclooxygenase Assay (RSV CO)
Ram seminal vesicular glands were trimed of excess fat, 50 gm diced into ice cold 0.1M potassium phosphate (pH 7.6) buffer and homoginized using a Brinkman Polytron. The suspension was centrifuged 10 min. at 10K×g (4°) and the supernatant filtered through two cheesecloth layers. The filtrate was centrifuged 160 min. at 105K×g. The supernatant was discarded and the pellet surface rinsed with a small volume of buffer. The pellets were combined in a small volume, briefly homoginized with the Polytron and frozen in 0.5 mL aliquots at -80°. The protien concentration was ~50 mg/mL. […] The thawed enzyme was diluted 1:63 with 0.125M sodium EDTA (pH 8.0) containing 50 mg/ml BSA. A substrate cofactor premix was prepared with 66 mL 14C-arachidonic acid (~20K cpm/12.5 mL) in 500 mL 0.125 M sodium EDTA (pH 8.0) plus 10 mL 50 mM hydroquinone and 10 mL 200 mM glutathione. To each sample well in the 96 well plate agents were added disolved in 0.5 mL DMSO followed by 12.5 mL of the diluted enzyme. After a 4 minute preincubation at room temperature 12.5 mL of the substrate cofactor mix was added to start the reaction. The reaction was killed after 20 minutes at room temperature by adding 25 mL methanol containing 200 mg PGE2 and 400 mg AA per mL. The entire reaction mixture was spotted onto a preadsorbent silica gel GF thin layer plate and, after air drying 45 minutes developed 12 cm in ethyl acetate:glacial acetic acid (99:1). The developed lanes were scanned for the distribution of radiolabel using a Bioscan Imaging Detector and the integrated peaks compared to standards and controls yielding percent inhibition.

The subject of experiment [5] is LTB4 production in PMN (LO). In words: PMN LTB4 Assay (inhibition of LTB4 production in rat PMN). Particulars: for IC50: leukotriene biosynthesis in rat PMN, mean values of at least two titrations. Type of experiment: cell-based, male Sprague-Dawley rats. On the procedure: Male Sprague-Dawley rats (~350 g) were injected intraperitoneally the day before use with 8 mL of 12% sodium caseinate. The next day the animals were killed by CO2 asphyxiation and the peritoneal cavity lavaged twice with 20 mL of Hanks balanced salts containing 15 mM HEPES (pH 7.4), 1.4 mM Ca^++ and 0.7 mM Mg^++ (Hepes-Hanks). The suspensions were filtered through plastic mesh and centrifuged at 260×g for 5 minutes. The cells were resuspended in 50 ml Hepes-Hanks and recentrifuged. The PMN pellets were combined and suspended at 1.25×10^7 cells/mL. The cell suspension was diluted 1:10, preincubated 5 minutes at 37° and distributed into 96 well microtiter plates with […]. The wells had previously received samples, controls, ect., in 25 mL of 0.001% fatty acid free BSA in Hepes-Hanks. The plates were incubated 2 min. at 37° and then the cells were stimulated to produce LTB4 by the addition of 25 mL of […]. After 4 minutes the plates were frozen in dry ice. The frozen plates were thawed to 4° and 25 mL aliquots removed to V-well plates. Antibody to LTB4 (50 mL) was added in and after 15 minutes at room temperature, 50 mL of ^3 H-LTB4 was added and the plates were stored overnight at 4° to allow equilibration. The next day the "free" 3HLTB4 was removed by adsorption to dextran coated charcoal ([…]/well of a 4% charcoal suspension with 0.25% Dextran T-70 in 10 mM potassium phosphate (pH 7.3) containing 1 mM EDTA and 0.25 mM thimerasol) durring a 10 minute ice temperature incubation. The charcoal was removed by a 10 minute centrifugation at 260×g. Aliquots of the supernatant were counted in a Packard 460, analyzed in a Masscomp computer (programs "filhariala and fhariasa") and the data reported as percent inhibition of LTB4 production.

The subject of experiment [6] is LTB4 biosynthesis in intact rat PMN. Particulars: cited from earlier work.
For experiment [7], the system named is cyclooxygenase. Particulars: cited from earlier work.

Usually IC50 stands for the concentration at which inhibition is half-maximal. For `CC(C)(C)c1cc(C(=O)c2cccs2)cc(C(C)(C)C)c1O` [A, 2,6-di-tert-butyl-4-(2-thienoyl) phenol], the IC50 in experiment [1] was 500 nM; in experiment [2] (guinea pig lung, read-out: IC50 against guinea pig lung 5-lipoxygenase) it was 20000 nM. The “potency at inhibiting guinea pig lung 5-lipoxygenase relative to cyclooxygenase” value in experiment [2] (compared with bovine seminal vesicle cyclooxygenase) was “fortyfold less potent”. In addition, in experiment [3], the “antiinflammatory activity in animal models of inflammation” value is “novel antiinflammatory agent in several animal models of inflammation”.
As for `Cc1coc2c(C(=O)c3cccs3)ccc(O)c12` [Compound 3, 3-Methyl-4-hydroxy-7-(2-thienoyl)benzofuran], the results for the IC50 in experiment [4] and in experiment [5] were 800 nM and 2700 nM, respectively.
The corresponding values for `C=CCc1cc(C(=O)c2cccs2)c2occ(C)c2c1O` [Compound 4, 3-methyl-4-hydroxy-5-(2-propen-1-yl)-7-(2-thienoyl)benzofuran] are 5600 nM and 6700 nM.
As for `CCCc1cc(C(=O)c2cccs2)c2occ(C)c2c1O` [Compound 5, 3-Methyl-4-hydroxy-5-propyl-7-(2-thienoyl)benzofuran], the figures for the IC50 in experiment [4] and in experiment [5] were 1300 nM and 1700 nM, respectively.
As to `Cc1coc2c(C(=O)c3ccccc3)ccc(O)c12` [Compound 6, 3-Methyl-4-hydroxy-7-benzoylbenzofuran], the figures for the IC50 in experiment [4] and in experiment [5] were 1300 nM and 3500 nM, respectively.
The term inhibition denotes the relative decrease from the control value, in per cent. On to `Cc1coc2c(C(C)(C)C)ccc(O)c12` [Compound 10a, 3-Methyl-4-hydroxy-7-tert-butylbenzofuran], for which, in experiment [4] (read-out: % inhibition (CO)), the inhibition at 1000 µg/mL stood at 1%. Half-maximal inhibition in experiment [5] (IC50) required 2100 nM.
Regarding `Cc1coc2c(C(C)(C)C)cc(C(C)(C)C)c(O)c12` [Compound 10b, 3-Methyl-4-hydroxy-5,7-di-tert-butylbenzofuran], the inhibition at 10000 µg/mL in experiment [4] (read-out: % inhibition (CO)) is 0%. Besides, testing at 1000 µg/mL in experiment [5] (Rattus norvegicus, at 1 mg/ml) gave an inhibition of 37%.
Turning to `Cc1coc2ccc(C(C)(C)C)c(O)c12` [Compound 12b, 3-Methyl-4-hydroxy-5-tert-butylbenzofuran], the IC50 in experiment [4] turned out to be 54000 nM; in experiment [5] it was 600 nM.
The corresponding values for `Cc1coc2c(C(=O)c3cccs3)cc(C(C)(C)C)c(O)c12` [Compound 14, 3-Methyl-4-hydroxy-5-tert-butyl-7-(2-thienoyl)-benzofuran] are 1000 nM and 1500 nM.
On the same counts, the results for `Cc1coc2c(C(=O)c3ccccc3)cc(C(C)(C)C)c(O)c12` [Compound 16, 3-Methyl-4-hydroxy-5-tert-butyl-7-benzoylbenzofuran] are 1300 nM and 1100 nM.
Turning to `Cc1coc2c(C(=O)c3ccc(Cl)cc3)cc(C(C)(C)C)c(O)c12` [Compound 19, 3-Methyl-4-hydroxy-5-tert-butyl-7-p-chlorobenzoylbenzofuran], the figures for the IC50 in experiment [4] and in experiment [5] were 1200 nM and 4400 nM, respectively.
With `CCCc1cc(Cl)c2oc(Cc3ccccc3)c(C)c2c1O` [Compound B], the IC50 is 240 nM in experiment [6] and 25000 nM in experiment [7] (RSV CO). Besides, the “potency on cyclooxygenase relative to LTB4 biosynthesis inhibition (selectivity)” value in experiment [7] (RSV CO versus intact rat PMN) is “a hundred times less potent”.
As to `CC(C)Cc1ccc(C(C)C(=O)O)cc1` (centres unmarked) [ibuprofen, reference compound], in experiment [4], the “activity in the CO assay” value is recorded as “displaying activity”.
On the same count and under the same terms, the entry for `COc1ccc2c(c1)c(CC(=O)O)c(C)n2C(=O)c1ccc(Cl)cc1` [indomethacin, reference compound] is “displaying activity”.
